Experimental data from patent US20180360799A1, “Nitrofuran Derivatives That Induce Apoptosis in Breast Cancer Cells by Activating Protein Expression” (Oklahoma Medical Research Foundation, priority 2015, published 2018).

What was measured:
[1] = tested on: HCC-1143 cells; experiment: Cell viability, CellTiter-Glo, HCC-1143; assay type: cell-based; details: Homo sapiens, HCC1143; 0.125 μM to 20 μM, CellTiter-Glo; read-out: IC50 cell viability HCC-1143
Procedure: (§1) Given the known functions of CHOP in ER stress-induced apoptosis^16, 17 and in regulating cancer cell death,^6, 19, 20 the inventor investigated whether compound 1 affects the viability of TNBC cells. Three human TNBC cell lines, HCC-1806, HCC-1143, and HCC-38, were treated with doses of 1 ranging from 0.125 μM to 20 μM and their viability was assessed using the CellTiter-Glo assay, which measures intracellular ATP levels.
(§2) HCC-1806, HCC-1143, or HCC-38 cells were seeded at 3×10^3 cells/well in a 384-well plate and treated with compounds at the indicated concentrations. After 3 d treatment, the medium was aspirated and 20 μL/well of CellTiter-Glo reagent was added. Cell viability was measured with an EnVision multilabel plate reader. The IC50 value for cell viability of each compound was calculated with GraphPad Prism (La Jolla, Calif., US).

[2] = tested on: HCC-38 cells; experiment: Cell viability, CellTiter-Glo, HCC-38; assay type: cell-based; details: Homo sapiens, HCC38; 0.125 μM to 20 μM, CellTiter-Glo; read-out: IC50 cell viability HCC-38
Procedure: as §1, §2

[3] = tested on: HCC-1806 cells; experiment: Cell viability, CellTiter-Glo, HCC-1806; assay type: cell-based; details: Homo sapiens, HCC1806; 0.125 μM to 20 μM, CellTiter-Glo; read-out: IC50 cell viability HCC-1806
Procedure: as §1, §2

[4] = tested on: endogenous CHOP gene; experiment: Endogenous CHOP mRNA by qRT-PCR in HEK293 cells; assay type: cell-based, human; details: 10 μM, 24 h
Excerpt: The primer sequences used were: Human CHOP: SEQ ID NO: 1 F, 5′-[sequence]-3′ and SEQ ID NO: 2 R, 5′-[sequence]-3′. Human ATF4: SEQ ID NO: 3 F, 5′-[sequence]-3′ and SEQ ID NO: 4 R, 5′-[sequence]-3′. […] Human Cyclophilin A: SEQ ID NO: 7 F, 5′-[sequence]-3′ and SEQ ID NO: 8 R, 5′-[sequence]-3′. Human GAPDH: SEQ ID NO: 9 F, 5′-[sequence]-3′ and SEQ ID NO: 10 R, 5′-[sequence]-3′.

[5] = tested on: CHOP promoter-luciferase (CHOP-Luc) reporter; experiment: CHOP-Luc reporter assay in HEK293 cells (Bright-Glo); assay type: cell-based, human; details: 10 μM, 24 h
Procedure: To identify compounds that activate the expression of CHOP, a HEK293 cell line stably expressing a CHOP-Luc reporter construct that faithfully reflects endogenous CHOP gene expression^21 was used to screen approximately 50,000 structurally diverse small molecules.
HEK293T CHOP-Luc cells were seeded at 7×10^3 cells/well in 384-well plates and treated with 10 μM of the library compounds the next day. After 24 h treatment, the medium was aspirated and 20 μL/well of Bright-Glo luciferase assay reagent was added. Luminescence was measured with an EnVision multilabel plate reader (PerkinElmer, Waltham, Mass., US). Hit selection was based on standard scores. The mean and standard deviation (SD) of luminescence for each compound was determined, and the standard score for each compound was then calculated as (raw measurement of a compound−mean)/SD of the plate. Compounds that increased ATP levels >3 SD compared with control wells (standard score >3) were considered hits.

[6] = tested on: XBP1 mRNA splicing (IRE1α pathway); experiment: XBP1 mRNA splicing by RT-PCR in HCC-1806 cells; assay type: cell-based, human; details: HCC-1806, tunicamycin 1 μg/mL, at 8 h
Procedure: FIG. 3E is a graph showing XBP1 mRNA levels in HCC-1806 cells treated with tunicamycin or a 5-nitrofuran-2-amide derivative compound 3d. HCC-1806 cells were treated with compound 3d (10 μM) or tunicamycin (Tm, 1 μg/mL) for the indicated times. XBP1 mRNA levels were analyzed by RT-PCR and the products were resolved by agarose gel electrophoresis. The full-length (unspliced, XBP1u) and spliced (XBP1s) forms of XBP1 mRNA are indicated. GAPDH mRNA was used as an internal control.
The percentage of XBP1s relative to total XBP1 was calculated as: (XBP1s/[XBP1s+XBP1u])×100%. The data shown are representative of 3 independent studies.
The inventor next asked whether the IRE1α and ATF6 branches of the unfolded protein response were also activated by compound 3d treatment of TNBC cells. […] XBP1 mRNA splicing, as measured by XBP1s levels, increased only slightly in the first 24 h after compound 3d treatment of HCC-1806 cells (from 11% of total XBP1 at 0 h to 15˜20% at 2˜24 h). […] Next, it was determined whether compound 3d activates the ATF6 pathway by evaluating its effect on the activity of an ER stress response elements (ERSE)-Luc reporter stably established in HEK293 cell line. […]

[7] = tested on: ER stress response elements (ERSE)-Luc reporter; experiment: ERSE-Luc reporter assay in HEK293 cells; assay type: cell-based, human; details: Tm 1 μg/mL, 24 h
Procedure: (§3) FIG. 3G is a graph showing HEK293 cells stably expressing CHOP-Luc, ERSE-Luc, or UPRE-luc reporters were treated with DMSO, a 5-nitrofuran-2-amide derivative, or tunicamycin. HEK293 cells stably expressing CHOP-Luc, ERSE-Luc, or UPRE-luc reporters were treated with DMSO, compound 3d (10 μM), or Tm (1 μg/mL) for 24 h, and luciferase activity was measured using the Bright-Glo assay. Results are the means of 4 replicate wells and are representative of 3 independent experiments.
(§4) The inventor next asked whether the IRE1α and ATF6 branches of the unfolded protein response were also activated by compound 3d treatment of TNBC cells. […] XBP1 mRNA splicing, as measured by XBP1s levels, increased only slightly in the first 24 h after compound 3d treatment of HCC-1806 cells (from 11% of total XBP1 at 0 h to 15˜20% at 2˜24 h). […] Next, it was determined whether compound 3d activates the ATF6 pathway by evaluating its effect on the activity of an ER stress response elements (ERSE)-Luc reporter stably established in HEK293 cell line.
(§5) The HEK293T CHOP reporter cell line (CHOP-Luc) was previously described.^21 HEK293T cells were stably transfected with ERSE-Luciferase^25 and UPRE-Luciferase^23 reporters to generate ERSE-Luc and UPRE-Luc reporter cell lines, respectively. […] Luciferase activity was measured with a Bright-Glo kit 24 h later.

[8] = tested on: UPRE-Luciferase (UPRE-Luc) reporter; experiment: UPRE-Luc reporter assay in HEK293 cells; assay type: cell-based, human; details: 3d 10 μM or Tm 1 μg/mL, 24 h
Procedure: as §3, §4, §5

IC50 [1]	IC50 [2]	IC50 [3]	Compound	increase of mRNA level of the endogenous CHOP gene [4]	increase of CHOP-Luc reporter activity [5]	XBP1s, percentage of total XBP1 [6]	increase of ERSE-driven luciferase activity [7]	increase of UPRE-Luc luciferase activity [8]
9.5 µM	8.7 µM	6.2 µM	O=C(Nc1ccc(I)cc1)c1ccc([N+](=O)[O-])o1 [Compound 1, N-(4-iodophenyl)-5-nitrofuran-2-carboxamide]	up to 30 fold	24 fold	–	–	–
–	–	–	tunicamycin [reference compound]	–	–	~87%	~12 fold	> 25 fold
